Laboratory results reported in US6855705B1, “11-O-methylgeldanamycin compounds” (Kosan Biosciences, Inc., priority 2003, dated 2005).
Where two headings read alike, the source gives them in different places.

How the values were obtained:
[1] = tested on: SKOV-3; experiment: Cytotoxicity, SKOV-3; conditions: Homo sapiens, SK-OV-3, read-out: Compound Cytotoxicity (IC50, nM)
[2] = biological target: Hsp90 (Homo sapiens, UniProt P07900); experiment: Hsp90 binding (filter binding assay)
[3] = tested on: CCRF-CEM; experiment: Cytotoxicity, CCRF-CEM; conditions: Homo sapiens, read-out: Compound Cytotoxicity (IC50, nM)
[4] = tested on: CCRF-CEM/taxol; experiment: Cytotoxicity, CCRF-CEM/taxol; conditions: Homo sapiens, read-out: Compound Cytotoxicity (IC50, nM)
[5] = tested on: MCF-7; experiment: Cytotoxicity, MCF-7; conditions: Homo sapiens, MCF7, read-out: Compound Cytotoxicity (IC50, nM)
[6] = tested on: CCRF-CEM/VP-16; experiment: Cytotoxicity, CCRF-CEM/VP-16; conditions: Homo sapiens, read-out: Compound Cytotoxicity (IC50, nM)
[7] = tested on: CCRF-CEM/VBL; experiment: Cytotoxicity, CCRF-CEM/VBL; conditions: Homo sapiens, read-out: Compound Cytotoxicity (IC50, nM)
[8] = tested on: SKBr3 cells; experiment: Cytotoxicity against SKBr3 cells (CellTiter-Glo, 72 h); conditions: Homo sapiens, SK-BR-3, 72 h, read-out: Cytotoxicity against SKBr3 Cells (IC50, nM)
Method: Cytotoxicity was determined with SKBr3 cells (ATCC HTB-30), a breast cancer cell line. […] Cells were plated into 96-well microtiter back plates at 4,000 cells per 50 μL per well, overnight. Serial 10× dilutions of test compound (10 μM to 0.1 μM) in cell culture media were prepared with a Biomek 2000 apparatus, using the protocols of deeper-1000 μL, media and deeper-1000 μL-dilution. 50 μL of each dilution was added to wells containing cells. Each compound or control (medium only) was tested in duplicate. For each assay, the wells contained a final volume of 100 μL (50 μL of cells and 50 μL of compound dilution). After incubating for 72 h, the plates were let stand at room temperature for 30 min. CellTiter-Glo Luminescent Reagent (Promega #G7573) (100 μL) was added to each well. The well contents were mixed for 5 min and the plates were kept at room temperature for another 30 min. Luminescence was recorded using a Wallac VICTOR^2 Multilabel Counter (PerkinElmer) and IC50 values were determined using Kaleidagraph software (Synergy Software).

[9] = tested on: HL-60/MX2; experiment: Cytotoxicity, HL-60/MX2; conditions: Homo sapiens, HL60/MX2, read-out: Compound Cytotoxicity (IC50, nM)
[10] = tested on: A-549; experiment: Cytotoxicity, A-549; conditions: Homo sapiens, A549, read-out: Compound Cytotoxicity (IC50, nM)
[11] = filter binding assay, read-out: Hsp90 Binding (Kd)

SMILES	IC50 [1] [nM]	Kd [2] [µM]	IC50 [3] [nM]	IC50 [4] [nM]	IC50 [5] [nM]	IC50 [6] [nM]	IC50 [7] [nM]	IC50 [8] [nM]	IC50 [9] [nM]	IC50 [10] [nM]	Kd [2, 11] [µM]
CO[C@H]1[C@@H](OC)C[C@H](C)CC2=C(N3CCC3)C(=O)C=C(NC(=O)/C(C)=C/C=C\[C@H](OC)[C@@H](OC(N)=O)/C(C)=C/[C@@H]1C)C2=O [Compound I-a, 11-O-methyl-17-(1-azetidinyl)-17-demethoxygeldanamycin]	110	4	420	2500	63	1400	2500	24	600	29	
CO[C@H]1[C@@H](OC)C[C@H](C)CC2=C(NCCN(C)C)C(=O)C=C(NC(=O)/C(C)=C/C=C\[C@H](OC)[C@@H](OC(N)=O)/C(C)=C/[C@@H]1C)C2=O [Compound I-b, 11-O-methyl-17-(2-dimethylaminoethyl)amino-17-demethoxy-geldanamycin]	43		58	390	50	65	960	12	62	23	0.8
CO[C@H]1[C@@H](OC)C[C@H](C)CC2=C(NCCF)C(=O)C=C(NC(=O)/C(C)=C/C=C\[C@H](OC)[C@@H](OC(N)=O)/C(C)=C/[C@@H]1C)C2=O [Compound I-c, 11-O-methyl-17-(2-fluoroethyl)amino-17-demethoxygeldana-mycin]	460	2.3	960	2700	58	2500	2500	250	440	67	
CO[C@H]1[C@@H](OC)C[C@H](C)CC2=C(NCCN3CC3)C(=O)C=C(NC(=O)/C(C)=C/C=C\[C@H](OC)[C@@H](OC(N)=O)/C(C)=C/[C@@H]1C)C2=O [Compound I-d, 11-O-methyl-17-(2-(1-aziridinyl)ethyl)amino-17-demethoxygelda-namycin]		2.1						36			
COC1=C2C[C@@H](C)C[C@H](OC)[C@H](OC)[C@@H](C)/C=C(\C)[C@H](OC(N)=O)[C@@H](OC)/C=C\C=C(/C)C(=O)NC(=CC1=O)C2=O [Compound I-e, 11-O-methyl-geldanamycin]								9.1			0.49
CO[C@H]1[C@@H](OC)C[C@H](C)CC2=C(N)C(=O)C=C(NC(=O)/C(C)=C/C=C\[C@H](OC)[C@@H](OC(N)=O)/C(C)=C/[C@@H]1C)C2=O [Compound I-f]	200		250	850	350	530	2500	84	930	37	0.32
C=CCNC1=C2C[C@@H](C)C[C@H](OC)[C@H](OC)[C@@H](C)/C=C(\C)[C@H](OC(N)=O)[C@@H](OC)/C=C\C=C(/C)C(=O)NC(=CC1=O)C2=O [Compound I-g, 11-O-methyl-17-allylamino-17-demethoxygeldanamycin]	1300		2500	3500	760	4000	> 5000	280	3000	360	2.8
CO[C@H]1[C@@H](OC)C[C@H](C)CC2=C(NCCc3c[nH]cn3)C(=O)C=C(NC(=O)/C(C)=C/C=C\[C@H](OC)[C@@H](OC(N)=O)/C(C)=C/[C@@H]1C)C2=O [Compound I-h, 11-O-methyl-17-(2-(4-imidazolyl)ethyl)amino-17-demethoxy-geldanamycin]	320		510	3000	160	2500	> 5000	60	2500	420	2
CO[C@H]1[C@@H](OC)C[C@H](C)CC2=C(NCCN3CCC3)C(=O)C=C(NC(=O)/C(C)=C/C=C\[C@H](OC)[C@@H](OC(N)=O)/C(C)=C/[C@@H]1C)C2=O [Compound I-i, 11-O-methyl-17-(2-(1-azetidinyl)ethyl)amino 17-demethoxy-geldanamycin]	65		85	510	51	140	2500	130	110	26	0.96
CO[C@H]1[C@@H](OC)C[C@H](C)CC2=C(NCCN3CCCC3)C(=O)C=C(NC(=O)/C(C)=C/C=C\[C@H](OC)[C@@H](OC(N)=O)/C(C)=C/[C@@H]1C)C2=O [Compound I-j, 11-O-methyl-17-(2-(1-pyrrolidinyl)ethyl)amino-17-demethoxygeldanamycin]	69		160	520	76	170	2500	160	98	62	0.96
COC1=C2C[C@@H](C)C[C@H](OC)[C@H](O)[C@@H](C)/C=C(\C)[C@H](OC(N)=O)[C@@H](OC)/C=C\C=C(/C)C(=O)NC(=CC1=O)C2=O [Geldanamycin]								23			
